PMC10233622, “Structural and functional investigation of a fungal member of carbohydrate esterase family 15 with potential specificity for rare xylans” (Acta Crystallographica. Section D, Structural Biology, 2023)

Biological target: T1, LfCE15C (Lentithecium fluviatile, UniProt A0A6G1IIU9)
T1 construct: gene K458DRAFT_349146; native signal peptide removed; secreted from Pichia pastoris SMD1168H; N-glycosylated at Asn241
Experiment: nanoDSF thermal shift (Tycho NT.[…] nm)
Details: 20 mM ligand; 0.1 M sodium phosphate pH 6.5; indirect indication of binding

T1 sequence (A0A6G1IIU9 entry or part of it): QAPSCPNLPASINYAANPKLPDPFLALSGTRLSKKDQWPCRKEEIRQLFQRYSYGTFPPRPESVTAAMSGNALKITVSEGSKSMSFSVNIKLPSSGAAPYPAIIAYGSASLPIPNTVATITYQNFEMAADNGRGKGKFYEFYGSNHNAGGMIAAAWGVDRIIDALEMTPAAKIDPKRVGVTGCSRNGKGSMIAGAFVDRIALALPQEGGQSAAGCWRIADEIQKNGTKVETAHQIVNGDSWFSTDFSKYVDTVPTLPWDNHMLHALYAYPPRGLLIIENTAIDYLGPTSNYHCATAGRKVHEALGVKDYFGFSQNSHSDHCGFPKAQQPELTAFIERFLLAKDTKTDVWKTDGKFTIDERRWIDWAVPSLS

O=C(OCc1ccccc1)[C@H]1OC(O)[C@H](O)[C@@H](O)[C@@H]1O (stereo partly shown) [BnzGlcA, benzyl glucuronate]
Ti shift: A decrease in T i was observed with BnzGlcA
